Experimental data reported in patent publication US20080299538A1, “Pathogen Inactivation of Whole Blood” (CARIDIANBCT BIOTECHNOLOGIES, LLC, priority 2003, published 2008).
Where two headings read alike, the source gives them in different places.

Columns and labels:
white blood cells (WBCs) [1] = conditions: Allostimulation: treated stimulators
white blood cells (WBCs) [2] = conditions: for % inhibition of proliferation: Allorecognition: treated responders
Hepatitis A (HAV) = test: Virus inactivation in whole blood; assay type: cell-based; conditions: as a function of illumination energy
S. epidermidis = test: Low bacteria titer study in whole blood; assay type: cell-based; design: key to Bacteria detected (+) or not detected (−) after treatment: +: some of the replicates of the cultures in the panel grew in under 5 days; −: none of the replicates of the cultures in the panel grew in under 5 days; conditions: for Bacteria detected (+) or not detected (−) after treatment: 110 J/mLRBC (n = 3)
From the text: (§1) To test whether pathogen inactivation of whole blood was effective in inactivating clinically relevant levels of bacteria which may be present in the whole blood, low titer bacteria studies were done. After pathogen inactivation of whole blood, the whole blood was separated into a red blood cell (RBC) component and platelet rich plasma (PRP) component. A + symbol means that some of the replicates of the cultures in the panel grew in under 5 days. A − symbol means that none of the replicates of the cultures in the panel grew in under 5 days.

red blood cells [3] = test: Mean osmotic fragility of stored red blood cells; assay type: cell-based; conditions: stored for 42 days; vs untreated cells
Method: Osmotic fragility during storage of red blood cells separated from pathogen inactivated whole blood was measured. The normal red blood cell is a relatively impermeable biconcave disc which maintains osmotic equilibrium with the surrounding medium. As the surrounding medium becomes hypotonic, fluid will be taken into the cell to maintain stability. Eventually under very hypotonic conditions the cell will fill to capacity and rupture. Red blood cells with damaged membranes have a decreased capacity to expand, and will rupture in mildly hypotonic conditions that fail to lyse normal red cells. […] Mean osmotic fragility (MOF) is a measure of red blood cell membrane fragility. The higher the MOF, the more fragile the red blood cells are. MOF is the concentration of NaCl where 50% of the red blood cells hemolyze.

white blood cells (WBCs) [4] = test: WBC proliferation in response to anti-CD3/CD28 (thymidine incorporation); conditions: for % inhibition of proliferation: CD3/28
Y. enterocolitica = test: Low bacteria titer study in whole blood; assay type: cell-based; design: key: +: some of the replicates of the cultures in the panel grew in under 5 days; −: none of the replicates of the cultures in the panel grew in under 5 days
From the text: as §1

S. liquefaciens = test: Low bacteria titer study in whole blood; assay type: cell-based; design: key: +: some of the replicates of the cultures in the panel grew in under 5 days; −: none of the replicates of the cultures in the panel grew in under 5 days
From the text: as §1

S. pyogenes = test: Low bacteria titer study in whole blood; assay type: cell-based; design: key: +: some of the replicates of the cultures in the panel grew in under 5 days; −: none of the replicates of the cultures in the panel grew in under 5 days
From the text: as §1

A. baumannii = test: Low bacteria titer study in whole blood; assay type: cell-based; design: key: +: some of the replicates of the cultures in the panel grew in under 5 days; −: none of the replicates of the cultures in the panel grew in under 5 days; conditions: 110 J/mLRBC (n = 3)
From the text: as §1

[5] = test system: infectious bovine rhinotracheitis virus (IBR); test: Virus inactivation in whole blood; assay type: cell-based; conditions: as a function of illumination energy
red blood cells [6] = test: ATP level in stored red blood cells; assay type: cell-based; conditions: increased energy levels
Method: ATP level or concentration was measured in red blood cells separated from pathogen inactivated whole blood. ATP concentration is a measure of the amount of ATP present in the cells at a given time.

white blood cells (WBCs) [7] = test: Cytokine production in response to anti-CD3/CD28 (Cytometric Bead Assay)
[8] = anti-CD3/28, 33 J/mlRBC and above, compared to untreated cells
[9] = anti-CD3/28, TH1/TH2 cytokines, 22 J/mlRBC
[10] = anti-CD3/28, TH1/TH2 cytokines, 33 J/mlRBC
[11] = anti-CD3/28, TH1/TH2 cytokines, 44 J/mlRBC
[12] = anti-CD3/28, inflammatory cytokines, 22 J/mlRBC

SMILES: Cc1cc2nc3c(=O)[nH]c(=O)nc-3n(C[C@H](O)[C@H](O)[C@H](O)CO)c2cc1C [riboflavin, 7,8-dimethyl-10-ribityl isoalloxazine]
- % inhibition of proliferation (white blood cells (WBCs) [1]; 22 J/mlRBC): 93 ± 3%
- % inhibition of proliferation (white blood cells (WBCs) [1]; 33 J/mlRBC): 96 ± 2%
- % inhibition of proliferation (white blood cells (WBCs) [1]; 44 J/mlRBC): 95 ± 2%
- % inhibition of proliferation (white blood cells (WBCs) [2]; 22 J/mlRBC): 95 ± 3%
- % inhibition of proliferation (white blood cells (WBCs) [2]; 33 J/mlRBC): 95 ± 2%
- % inhibition of proliferation (white blood cells (WBCs) [2]; 44 J/mlRBC): 96 ± 2%
- proliferation of treated WBCs in response to allogeneic stimulator cells (white blood cells (WBCs) [2]; treated WBCs as responder cells in MLC): not able to proliferate
- log reduction of virus (Hepatitis A (HAV)): increases linearly with respect to energy
- Bacteria detected (+) or not detected (−) after treatment (S. epidermidis; PRP): −
- Bacteria detected (+) or not detected (−) after treatment (S. epidermidis; RBC): +
- bacterial growth in red blood cells (S. epidermidis; 110 J/mLRBC, RBC): grew
- osmotic fragility (MOF) of red blood cells (red blood cells [3]): slightly more fragile than untreated cells
- % inhibition of proliferation (white blood cells (WBCs) [4]; 22 J/mlRBC): 93 ± 2%
- % inhibition of proliferation (white blood cells (WBCs) [4]; 33 J/mlRBC): 99 ± 0%
- % inhibition of proliferation (white blood cells (WBCs) [4]; 44 J/mlRBC): 99 ± 0%
- induced proliferation of treated WBCs (white blood cells (WBCs) [4]; plate-bound anti-CD3 plus anti-CD28 antibodies, 33 J/mlRBC and above, 3 days of incubation): no detectable induced proliferation
- Bacteria detected (+) or not detected (−) after treatment (Y. enterocolitica; 80 J/mLRBC (n = 3), PRP): −
- Bacteria detected (+) or not detected (−) after treatment (Y. enterocolitica; 80 J/mLRBC (n = 3), RBC): −
- Bacteria detected (+) or not detected (−) after treatment (Y. enterocolitica; 110 J/mLRBC (n = 3), PRP): −
- Bacteria detected (+) or not detected (−) after treatment (Y. enterocolitica; 110 J/mLRBC (n = 3), RBC): −
- Bacteria detected (+) or not detected (−) after treatment (S. liquefaciens; 80 J/mLRBC (n = 3), PRP): −
- Bacteria detected (+) or not detected (−) after treatment (S. liquefaciens; 80 J/mLRBC (n = 3), RBC): −
- Bacteria detected (+) or not detected (−) after treatment (S. liquefaciens; 110 J/mLRBC (n = 3), PRP): −
- Bacteria detected (+) or not detected (−) after treatment (S. liquefaciens; 110 J/mLRBC (n = 3), RBC): −
- Bacteria detected (+) or not detected (−) after treatment (S. pyogenes; 80 J/mLRBC (n = 3), PRP): −
- Bacteria detected (+) or not detected (−) after treatment (S. pyogenes; 110 J/mLRBC (n = 3), PRP): −
- Bacteria detected (+) or not detected (−) after treatment (S. pyogenes; 110 J/mLRBC (n = 3), RBC): −
- Bacteria detected (+) or not detected (−) after treatment (A. baumannii; PRP): −
- Bacteria detected (+) or not detected (−) after treatment (A. baumannii; RBC): −
- log reduction of virus [5]: increases linearly with respect to energy
- total concentration of ATP in red blood cells (red blood cells [6]): decrease the total concentration of ATP
- inflammatory cytokine production in response to anti-CD3/28 antibodies (white blood cells (WBCs) [7]): significantly reduced
- TH1/TH2 cytokine production induced by anti-CD3/28 stimulation (white blood cells (WBCs) [7]; all energies tested): significantly reduced
- cytokine production in response to anti-CD3/anti-CD28 antibodies blocked (white blood cells (WBCs) [7]; all energies tested, with the exception of IL-4 and IL-8 at 22 J/mlRBC): > 90%
- inhibition of IFN-γ production (white blood cells (WBCs) [7]; [8]): > 90%
- inhibition of IL-2 production (white blood cells (WBCs) [7]; [8]): > 90%
- inhibition of TNF-α production (white blood cells (WBCs) [7]; [8]): > 90%
- % inhibition of IFN-γ production (white blood cells (WBCs) [7]; [9]): 99 ± 1%
- % inhibition of IL-2 production (white blood cells (WBCs) [7]; [9]): 91 ± 7%
- % inhibition of IL-4 production (white blood cells (WBCs) [7]; [9]): 84%
- % inhibition of IL-5 production (white blood cells (WBCs) [7]; [9]): 94 ± 3%
- % inhibition of IL-10 production (white blood cells (WBCs) [7]; [9]): 99 ± 1%
- % inhibition of TNFα production (white blood cells (WBCs) [7]; [9]): 92 ± 15%
- % inhibition of IFN-γ production (white blood cells (WBCs) [7]; [10]): 100 ± 0%
- % inhibition of IL-2 production (white blood cells (WBCs) [7]; [10]): 99 ± 1%
- % inhibition of IL-4 production (white blood cells (WBCs) [7]; [10]): 95 ± 3%
- % inhibition of IL-5 production (white blood cells (WBCs) [7]; [10]): 99 ± 1%
- % inhibition of IL-10 production (white blood cells (WBCs) [7]; [10]): 100 ± 0%
- % inhibition of TNFα production (white blood cells (WBCs) [7]; [10]): 99 ± 1%
- % inhibition of IFN-γ production (white blood cells (WBCs) [7]; [11]): 100 ± 0%
- % inhibition of IL-2 production (white blood cells (WBCs) [7]; [11]): 100 ± 0%
- % inhibition of IL-4 production (white blood cells (WBCs) [7]; [11]): 97 ± 2%
- % inhibition of IL-5 production (white blood cells (WBCs) [7]; [11]): 99 ± 1%
- % inhibition of IL-10 production (white blood cells (WBCs) [7]; [11]): 100 ± 0%
- % inhibition of TNFα production (white blood cells (WBCs) [7]; [11]): 100 ± 0%
- % inhibition of IL-1β production (white blood cells (WBCs) [7]; [12]): 98 ± 2%
- % inhibition of IL-6 production (white blood cells (WBCs) [7]; [12]): 99 ± 2%
- % inhibition of IL-8 production (white blood cells (WBCs) [7]; [12]): 89%
- % inhibition of IL-10 production (white blood cells (WBCs) [7]; [12]): 99 ± 1%
- % inhibition of IL-12 p70 production (white blood cells (WBCs) [7]; [12]): 98 ± 4%
